Values quoted from earlier work as cited in patent US5523456A, “Inhibitors of farnesyl-protein transferase” (Merck & Co., Inc., priority 1994, dated 1996).

Test system: Ras farnesylation
Settings: Hancock et al.; Casey et al.; Schafer et al.

| SMILES | Inhibition of Ras farnesylation in vivo |
| --- | --- |
| CC[C@H](C)C(=O)O[C@H]1CCC=C2C=C[C@H](C)[C@H](CC[C@@H]3C[C@@H](O)CC(=O)O3)[C@H]21 [compactin] | Inhibition of Ras farnesylation in vivo has been demonstrated |
| CC[C@H](C)C(=O)O[C@H]1C[C@@H](C)C=C2C=C[C@H](C)[C@H](CC[C@@H]3C[C@@H](O)CC(=O)O3)[C@H]21 [lovastatin] | Inhibition of Ras farnesylation in vivo has been demonstrated |
